Assay results as given in US20260078120A1, “SUBSTITUTED PYRIDOPYRIMIDINONES” (MIRATI THERAPEUTICS, INC., priority 2022, published 2026).
Like-named read-outs stand apart in the source and are kept apart here.

Legend:
Format in all cases: cell-based
[1] = system: T47D (PI3Kα H1047R mutant) cells; experiment: CellTiter-Glo 2.0 luminescent cell viability assay, 72 hours, T47D cells
How it was run: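 Viability was measured by CellTiter-Glo 2.0 luminescence after approximately 72 h of compound exposure at 37° C. Plating was 1000 cells per well the day before dosing, with ten 1:4 dilutions from a 10 µM top concentration. Values as percent of vehicle were fitted by variable-slope log(inhibitor) regression to give IC50.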

[2] = system: SKBR3 (PI3Kα wild type) cells; experiment: CellTiter-Glo 2.0 luminescent cell viability assay, 72 hours, SKBR3 cells; settings: Homo sapiens, SK-BR-3, 72 h
How it was run: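 Viability measured via CTG luminescence following roughly 72 hours of compound exposure at 37° C. Dosing used a 10 um starting concentration diluted 1:4 over 10 points; percent-of-vehicle data fitted with a variable-slope four-parameter model for IC50.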

[3] = system: T47D (PI3Kα H1047R mutant) cells; experiment: Inhibition of pAKT formation, alphaLISA SureFire Ultra AKT 1/2/3 (pS473), T47D cells; settings: Homo sapiens, T47D
How it was run: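 AKT Ser473 phosphorylation was quantified by alphaLISA SureFire Ultra after roughly 1 h or 24 h compound exposure at 37 °C. Cells were T47D (12,000/well in HBSS), treated with a 10-point 1:4 series starting at 10.4 μM. Percent of control used alpelisib background and DMSO reference, and IC50 came from four-parameter logistic fitting.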

[4] = Homo sapiens, T47D, 72 h, T47D (PI3Kα H1047R mutant) cells, CellTiter-Glo, approximately 72 hours, read-out: T47D (H1047R mutant) Viability IC50
[5] = SKBR3 (PI3Kα wild type) cells, CellTiter-Glo, approximately 72 hours, read-out: SKBR3 (WT) Viability IC50
[6] = T47D (PI3Kα H1047R mutant) cells, inhibition of pAKT (pS473) formation, approximately one hour or 24 hours treatment, read-out: T47D pAKT (H1047R mutant) IC50

| IC50 [1, 4] [nM] | IC50 [2, 5] [nM] | IC50 [3, 6] [nM] | IC50 ([1]; T47D (PI3Kα H1047R mutant) cells, CellTiter-Glo, approximately 72 hours, read-out: T47D (H1047R mutant) Viability IC50) [nM] | Compound | IC50 ([1]; Homo sapiens, T47D, 72 h, read-out: T47D (H1047R mutant) Viability IC50 (nM)) [nM] | IC50 ([2]; read-out: SKBR3 (WT) Viability IC50 (nM)) [nM] | IC50 ([3]; read-out: T47D pAKT (H1047R mutant) IC50 (nM)) [nM] |
| --- | --- | --- | --- | --- | --- | --- | --- |
|  | > 10000 | 572 | 75.8 | Cc1cc([C@@H](C)Nc2ccccc2C(=O)O)c2nc(N3Cc4cc(F)c(F)cc4C3)c(C)c(=O)n2c1 [Example 10-140, (R)-2-((1-(2-(5,6-difluoroisoindolin-2-yl)-3,7-dimethyl-4-oxo-4H-pyrido[1,2-a]pyrimidin-9-yl)ethyl)amino)benzoic acid] |  |  |  |
| 93.7 | 8830 | 2.67 |  | Cc1cc([C@@H](C)Nc2ccccc2C(=O)O)c2nc(N3CCN(c4ccc(C#N)cc4)CC3C)c(C#N)c(=O)n2c1 (stereo partly drawn) [Example 10-109, 2-(((1R)-1-(3-cyano-2-(4-(4-cyanophenyl)-2-methylpiperazin-1-yl)-7-methyl-4-oxo-4H-pyrido[1,2-a]pyrimidin-9-yl)ethyl)amino)benzoic acid] |  |  |  |
| 104 | > 10000 | 2.39 |  | COC1CCN(c2nc3c([C@@H](C)Nc4ccccc4C(=O)O)cc(C)cn3c(=O)c2C#N)CC1 [Example 10-123, (R)-2-((1-(3-cyano-2-(4-methoxypiperidin-1-yl)-7-methyl-4-oxo-4H-pyrido[1,2-a]pyrimidin-9-yl)ethyl)amino)benzoic acid] |  |  |  |
| 82.4 | > 10000 | 0.596 |  | Cc1cc([C@@H](C)Nc2ccccc2C(=O)O)c2nc(NC3CCC3)c(C#N)c(=O)n2c1 [Example 10-90, (R)-2-((1-(3-cyano-2-(cyclobutylamino)-7-methyl-4-oxo-4H-pyrido[1,2-a]pyrimidin-9-yl)ethyl)amino)benzoic acid] |  |  |  |
| 82.5 | > 10000 | 2.55 |  | Cc1cc([C@@H](C)Nc2ccccc2C(=O)O)c2nc(N3CCN(CC(F)F)CC3)c(C)c(=O)n2c1 [Example 10-91, (R)-2-((1-(2-(4-(2,2-difluoroethyl)piperazin-1-yl)-3,7-dimethyl-4-oxo-4H-pyrido[1,2-a]pyrimidin-9-yl)ethyl)amino)benzoic acid] |  |  |  |
| 96.7 | > 10000 | 6.23 |  | Cc1cc([C@@H](C)Nc2ccccc2C(=O)O)c2nc(N3CCN(c4ncc(C#N)cn4)CC3)c(C#N)c(=O)n2c1 [Example 10-112, (R)-2-((1-(3-cyano-2-(4-(5-cyanopyrimidin-2-yl)piperazin-1-yl)-7-methyl-4-oxo-4H-pyrido[1,2-a]pyrimidin-9-yl)ethyl)amino)benzoic acid] |  |  |  |
| 96.4 | > 10000 | 4.82 |  | Cc1cc([C@@H](C)Nc2ccccc2C(=O)O)c2nc(N3CCC4(CC3)COC4)c(C)c(=O)n2c1 [Example 10-111, (R)-2-((1-(3,7-dimethyl-4-oxo-2-(2-oxa-7-azaspiro[3.5]nonan-7-yl)-4H-pyrido[1,2-a]pyrimidin-9-yl)ethyl)amino)benzoic acid] |  |  |  |

The remaining lines, values behind:

| Compound | IC50 [1, 4] [nM] | IC50 [2, 5] [nM] | IC50 [3, 6] [nM] | IC50 ([1]; T47D (PI3Kα H1047R mutant) cells, CellTiter-Glo, approximately 72 hours, read-out: T47D (H1047R mutant) Viability IC50) [nM] | IC50 ([1]; Homo sapiens, T47D, 72 h, read-out: T47D (H1047R mutant) Viability IC50 (nM)) [nM] | IC50 ([2]; read-out: SKBR3 (WT) Viability IC50 (nM)) [nM] | IC50 ([3]; read-out: T47D pAKT (H1047R mutant) IC50 (nM)) [nM] |
| --- | --- | --- | --- | --- | --- | --- | --- |
| C[C@@H](Nc1ccccc1C(=O)O)c1cc(F)cn2c(=O)c(C#N)c(N3CCC(F)(F)CC3)nc12 [Example 10-25, (R)-2-((1-(3-cyano-2-(4,4-difluoropiperidin-1-yl)-7-fluoro-4-oxo-4H-pyrido[1,2-a]pyrimidin-9-yl)ethyl)amino)benzoic acid] | 49.6 | > 10000 | 4.69 |  |  |  |  |
| COC1(C)CCN(c2nc3c([C@@H](C)Nc4ccccc4C(=O)O)cc(C)cn3c(=O)c2C#N)CC1 [Example 10-78, (R)-2-((1-(3-cyano-2-(4-methoxy-4-methylpiperidin-1-yl)-7-methyl-4-oxo-4H-pyrido[1,2-a]pyrimidin-9-yl)ethyl)amino)benzoic acid] | 74 | > 10000 | 2.21 |  |  |  |  |
| Cc1cc([C@@H](C)Nc2ccccc2C(=O)O)c2nc(N3Cc4ccccc4C3)c(C#N)c(=O)n2c1 [Example 10-43, (R)-2-((1-(3-cyano-2-(isoindolin-2-yl)-7-methyl-4-oxo-4H-pyrido[1,2-a]pyrimidin-9-yl)ethyl)amino)benzoic acid] | 62.2 | > 10000 | 2.52 |  |  |  |  |
| Cc1cc([C@@H](C)Nc2ccccc2C(=O)O)c2nc(N3Cc4cc(F)c(F)cc4C3)c(C#N)c(=O)n2c1 [Example 10-87, (R)-2-((1-(3-cyano-2-(5,6-difluoroisoindolin-2-yl)-7-methyl-4-oxo-4H-pyrido[1,2-a]pyrimidin-9-yl)ethyl)amino)benzoic acid] | 80.2 | > 10000 | 2.23 |  |  |  |  |
| Cc1cc([C@@H](C)Nc2ccc(Cl)nc2C(=O)O)c2nc(NCC3CC3)c(C)c(=O)n2c1 [Example 10-85, (R)-6-chloro-3-((1-(2-((cyclopropylmethyl)amino)-3,7-dimethyl-4-oxo-4H-pyrido[1,2-a]pyrimidin-9-yl)ethyl)amino)picolinic acid] | 79.5 | > 10000 | 2 |  |  |  |  |
| Cc1cc([C@@H](C)Nc2ccccc2C(=O)O)c2nc(N3CCN(c4ccc(C#N)c5cnccc45)CC3)c(C)c(=O)n2c1 [Example 10-19, (R)-2-((1-(2-(4-(8-cyanoisoquinolin-5-yl)piperazin-1-yl)-3,7-dimethyl-4-oxo-4H-pyrido[1,2-a]pyrimidin-9-yl)ethyl)amino)benzoic acid] |  |  |  |  | 41.4 | 7640 | 0.244 |
| Cc1cc([C@@H](C)Nc2ccccc2C(=O)O)c2nc(N3CCC4(CC3)C(F)(F)C4(F)F)c(C#N)c(=O)n2c1 [Example 10-81, (R)-2-((1-(3-cyano-7-methyl-4-oxo-2-(1,1,2,2-tetrafluoro-6-azaspiro[2.5]octan-6-yl)-4H-pyrido[1,2-a]pyrimidin-9-yl)ethyl)amino)benzoic acid] | 78.5 | > 10000 | 2.53 |  |  |  |  |
| Cc1cc([C@@H](C)Nc2ccc(Cl)nc2C(=O)O)c2nc(N3Cc4ccc(F)cc4C3)c(C#N)c(=O)n2c1 [Example 10-50, (R)-6-chloro-3-((1-(3-cyano-2-(5-fluoroisoindolin-2-yl)-7-methyl-4-oxo-4H-pyrido[1,2-a]pyrimidin-9-yl)ethyl)amino)picolinic acid] | 66.5 | > 10000 | 1.34 |  |  |  |  |
| Cc1cc([C@@H](C)Nc2ccccc2C(=O)O)c2nc(N3CCC(F)(F)[C@@H]3C)c(C#N)c(=O)n2c1 [Example 10-31, 2-(((R)-1-(3-cyano-2-((S)-3,3-difluoro-2-methylpyrrolidin-1-yl)-7-methyl-4-oxo-4H-pyrido[1,2-a]pyrimidin-9-yl)ethyl)amino)benzoic acid] | 55.1 | > 10000 | 6.39 |  |  |  |  |
| Cc1cc([C@@H](C)Nc2ccccc2C(=O)O)c2nc(N3CC[C@H]3CF)c(C#N)c(=O)n2c1 (single isomer, unassigned) [Example 10-54] | 72.2 | > 10000 | 3.36 |  |  |  |  |
| Cc1cc([C@@H](C)Nc2ccccc2C(=O)O)c2nc(N3CCCCC3)c(F)c(=O)n2c1 [Example 10-79, (R)-2-((1-(3-fluoro-7-methyl-4-oxo-2-(piperidin-1-yl)-4H-pyrido[1,2-a]pyrimidin-9-yl)ethyl)amino)benzoic acid] | 77.5 | > 10000 | 0.299 |  |  |  |  |
| Cc1cc([C@@H](C)Nc2ccccc2C(=O)O)c2nc(N3C4CCCC3CC4)c(C#N)c(=O)n2c1 [Example 10-89, 2-(((1R)-1-(2-(8-azabicyclo[3.2.1]octan-8-yl)-3-cyano-7-methyl-4-oxo-4H-pyrido[1,2-a]pyrimidin-9-yl)ethyl)amino)benzoic acid] | 81.7 | > 10000 | 8.14 |  |  |  |  |
